Data published in patent publication EP0244088A2, “1-Phenyl-3-benzazepine compounds and medicaments containing these compounds for treating gastrointestinal motility disorders” (SMITHKLINE BECKMAN CORPORATION, priority 1986, dated 1987).

Test system: lower esophageal sphincter (LES)
Assay: Determination of LES pressure in the anesthetized dog
Format: in vivo, dogs
Details: for ED20: Canis lupus familiaris, iv, Effective Dose 20 for increase in resting LES pressure, mean of individual ED20 values (N>=3), read-out: ED20 mcg/kg, i.v.
Protocol: Method for Determination of LES Pressure in the Anesthetized Dog
Mongrel or beagle dogs, male and female, are anesthetized using sodium pentobarbital (35.0 mg/kg., I.V.). Sodium pentobarbital is then continuously infused (approximatemated 6.0 mg/kg/hr) to maintain deep anesthesia. Blood pressure is monitored via a catheter surgically implanted into the femoral artery and attached to a Gould's P231D transducer. A catheter is also implanted into the femoral vein to administer test drugs. Respiration is maintained by an endotracheal tube attached to a respirator. A continuously perfused manometric catheter system including a Dent sleeve to measure sphincter pressure (Dent, Gastroenterology 7l: 263-267, l976) is inserted into the esophagus and positioned so that intraluminal pressure is recorded from the body of the esophagus, the lower esophageal sphincter (LES) and the fundus of the stomach. The Dent sleeve catheter is perfused at a rate of 0.5 ml of water per minute for each lumen of the catheter by using an Arndorfer Hydraulic Capillary Infusion System. A cannula is implanted into the gastric antrum to allow drainage of the perfusate solution and prevent intestinal distension. Continuous tracings of esophageal, LES and fundus pressure are monitored on a Grass Polygraph (Model 7D). Correct positioning of the Dent sleeve is verified by noting a high pressure zone at the LES and by administration of an intravenous dose of 5-HT (usually l0-l5 mcg/kg) which contracts the LES while having little or no recordable effect on either the body of the esophagus or the fundus. After verification of placement of the sleeve, the animal is allowed to stabilize for approximately 30 minutes.
Compounds are administered intravenously, intraduodenally or intragastrically. In most cases, succeeding doses of the same or different compounds are given only after the LES pressure has returned to approximate predosing baseline values. In all cases, the magnitude of change in LES pressure is determined from the baseline pressure immediately prior to each treatment to the maximum pressure during treatment. Since the compounds used usually produce an immediate effect on LES pressure, no pretreatment time prior to measurement is necessary during this testing.
Direct assay techniques are used to estimate an Effective Dose 20 (ED₂₀) for the test compound in individual animals. The mean ED₂₀ and 95% confidence limits are determined using the individual ED₂₀ values from a group of animals (N=≧3) that received the same treatment.

| Compound | ED20 | change in LES pressure (baseline to maximum during treatment) (at 250 (mcg/kg per column head), i.g.) |
| --- | --- | --- |
| Oc1cc(Cl)c2c(c1)C(c1ccccc1)CNCC2 (stereo not drawn) [compound 1, 6-Chloro-8-hydroxy-l-phenyl-2,3,4,5-tetrahydro-lH-3-benzazepine] | 0.445 mg/kg |  |
| CS(=O)(=O)c1cc2c(cc1O)CCNCC2c1ccccc1 (stereo not drawn) [compound 2, 7-Hydroxy-8-methylsulfonyl-l-phenyl-2,3,4,5-tetrahydro-lH-3-benzazepine] | 0.317 mg/kg |  |
| CS(=O)(=O)c1cc2c(cc1O)C(c1ccccc1)CNCC2 (stereo not drawn) [compound 3, 8-Hydroxy-7-methylsulfonyl-l-phenyl-2,3,4,5-tetrahydro-lH-3-benzazepine] | 0.05 mg/kg |  |
| Oc1cc2c(cc1Br)CCNCC2c1ccccc1 (stereo not drawn) [compound 4, 7-Bromo-8-hydroxy-l-phenyl-2,3,4,5-tetrahydro-lH-3-benzazepine] | 0.016 mg/kg |  |
| Cc1cc2c(cc1O)C(c1ccccc1)CNCC2 (stereo not drawn) [compound 5, 8-Hydroxy-7-methyl-l-phenyl-2,3,4,5-tetrahydro-lH-3-benzazepine] | 0.026 mg/kg |  |
| CSc1cc2c(cc1O)C(c1ccccc1)CNCC2 (stereo not drawn) [compound 6, 8-hydroxy-7-methylthio-l-phenyl-2,3,4,5-tetrahydro-lH-3-benzazepine] | 0.017 mg/kg |  |
| Oc1cc2c(cc1C(F)(F)F)CCNCC2c1ccccc1 (stereo not drawn) [compound 7, 8-Hydroxy-l-phenyl-7-trifluoromethyl-2,3,4,5-tetrahydro-lH-3-benzazepine] | 0.02 mg/kg |  |
| COc1cc2c(cc1Br)CCN(C)CC2c1ccccc1 (stereo not drawn) [compound 8, 7-Bromo-8-methoxy-3-methyl-l-phenyl-2,3,4,5-tetrahydro-lH-3-benzazepine] | 0.079 mg/kg |  |
| CN1CCc2cc(Cl)c(Cl)cc2C(c2ccccc2)C1 (stereo not shown) [compound 9] | 0.623 mg/kg |  |
| Oc1cc2c(cc1O)C(c1ccccc1)CNCC2 (stereo not drawn) [compound 10, 7,8-dihydroxy-l-phenyl-2,3,4,5-tetrahydro-lH-3-benzazepine] | 0.735 mg/kg |  |
| Cc1cc2c(cc1O)C(c1ccc(O)cc1)CNCC2 (stereo not drawn) [compound 11, 8-Hydroxy-l-(4-hydroxyphenyl)-7-methyl-2,3,4,5-tetrahydro-lH-3-benzazepine] | 0.044 mg/kg |  |
| COc1cc2c(cc1S(C)(=O)=O)CCNCC2c1ccccc1 (stereo not drawn) [compound 12, 8-Methoxy-7-methylsulfonyl-l-phenyl-2,3,4,5-tetrahydro-lH-3-benzazepine] |  | 15 mm Hg at 250 (i.g.) |
| COCc1cc2c(cc1O)C(c1ccccc1)CNCC2 (stereo not drawn) [compound 13, 8-hydroxy-7-methoxymethyl-l-phenyl-2,3,4,5-tetrahydro-lH-3-benzazepine] | < 0.05 mg/kg |  |
| OCc1cc2c(cc1O)C(c1ccccc1)CNCC2 (stereo not drawn) [compound 14, 8-hydroxy-7-hydroxymethyl-l-phenyl-2,3,4,5-tetrahydro-lH-3-benzazepine] | 0.1 mg/kg |  |
| CS(=O)(=O)Nc1cc2c(cc1O)CCNCC2c1ccccc1 (stereo not drawn) [compound 15, 7-hydroxy-8-methanesulfonamido-l-phenyl-2,3,4,5-tetrahydro-lH-3-benzazepine] | 0.5 mg/kg |  |
| CC(=O)Nc1cc2c(cc1O)C(c1ccccc1)CNCC2 (stereo not drawn) [compound 16, 7-Acetamido-8-hydroxy-l-phenyl-2,3,4,5-tetrahydro-lH-3-benzazepine] | < 2 mg/kg |  |
